PMC3326534 (Biochemistry, 2007)
Read-outs that look alike come from different tables or passages of the source.

How the values were obtained:
Assay type in all cases: binding
PrnB [1] = target: PrnB (Pseudomonas fluorescens, UniProt P95481, C21S/C60S/C175S); experiment: crystal structure
PrnB [2] = target: T1, PrnB (Pseudomonas fluorescens, UniProt P95481, C175S/C21S/C60S); experiment: spectrophotometric ligand titration
PrnB [3] = target: T1, PrnB; experiment: spectrophotometric ligand titration; remark: listed apart in the source
PrnB [4] = target: T1, PrnB; experiment: spectrophotometric ligand titration; remark: listed apart in the source

T1 sequence (P95481 whole entry C175S/C21S/C60S): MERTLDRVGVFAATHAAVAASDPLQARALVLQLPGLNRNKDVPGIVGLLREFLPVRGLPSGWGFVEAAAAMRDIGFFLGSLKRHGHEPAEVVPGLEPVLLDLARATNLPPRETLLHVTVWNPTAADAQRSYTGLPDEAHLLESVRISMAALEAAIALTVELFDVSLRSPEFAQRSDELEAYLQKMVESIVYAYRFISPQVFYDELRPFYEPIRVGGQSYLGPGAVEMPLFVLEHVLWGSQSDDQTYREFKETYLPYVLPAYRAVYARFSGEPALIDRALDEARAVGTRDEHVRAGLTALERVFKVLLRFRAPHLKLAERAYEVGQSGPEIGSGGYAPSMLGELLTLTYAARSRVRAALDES
Sequence of PrnB (Pseudomonas fluorescens, UniProt P95481, C21S/C60S/C175S) (P95481 whole entry C21S/C60S/C175S): as the sequence (P95481 whole entry C175S/C21S/C60S) above

NC(Cc1c[nH]c2c(Cl)cccc12)C(=O)O (racemic) [7-Cl-D-tryptophan]
crystal structure (2.0 Å) (PrnB [1]): In the 7-Cl-D-tryptophan complex, one of the oxygen atoms of the carboxyl group is bound to the iron

N[C@@H](Cc1c[nH]c2c(Cl)cccc12)C(=O)O [7-Cl-L-tryptophan]
Kd (PrnB [2]): 4.9 µM

N[C@H](Cc1c[nH]c2ccccc12)C(=O)O [D-tryptophan]
Kd (PrnB [3]): 39 µM

N[C@@H](Cc1c[nH]c2ccccc12)C(=O)O [L-tryptophan]
Kd (PrnB [4]): 60 µM
